Measured values from ChEMBL document CHEMBL1145004, “3-(4-[[Benzyl(methyl)amino]methyl]phenyl)-6,7-dimethoxy-2H-2-chromenone (AP2238) inhibits both acetylcholinesterase and acetylcholinesterase-induced beta-amyloid aggregation: a dual function lead for Alzheimer's disease therapy” (J Med Chem, 2003).

What was measured:
[1] = biological target: Acetylcholinesterase (Homo sapiens, UniProt P22303); assay: Inhibitory potency was evaluated against recombinant human AChE
[2] = biological target: Cholinesterase (Homo sapiens, UniProt P06276); assay: Inhibitory potency was evaluated against isolated Butyrylcholinesterase
Sequence of Cholinesterase (P06276 whole entry): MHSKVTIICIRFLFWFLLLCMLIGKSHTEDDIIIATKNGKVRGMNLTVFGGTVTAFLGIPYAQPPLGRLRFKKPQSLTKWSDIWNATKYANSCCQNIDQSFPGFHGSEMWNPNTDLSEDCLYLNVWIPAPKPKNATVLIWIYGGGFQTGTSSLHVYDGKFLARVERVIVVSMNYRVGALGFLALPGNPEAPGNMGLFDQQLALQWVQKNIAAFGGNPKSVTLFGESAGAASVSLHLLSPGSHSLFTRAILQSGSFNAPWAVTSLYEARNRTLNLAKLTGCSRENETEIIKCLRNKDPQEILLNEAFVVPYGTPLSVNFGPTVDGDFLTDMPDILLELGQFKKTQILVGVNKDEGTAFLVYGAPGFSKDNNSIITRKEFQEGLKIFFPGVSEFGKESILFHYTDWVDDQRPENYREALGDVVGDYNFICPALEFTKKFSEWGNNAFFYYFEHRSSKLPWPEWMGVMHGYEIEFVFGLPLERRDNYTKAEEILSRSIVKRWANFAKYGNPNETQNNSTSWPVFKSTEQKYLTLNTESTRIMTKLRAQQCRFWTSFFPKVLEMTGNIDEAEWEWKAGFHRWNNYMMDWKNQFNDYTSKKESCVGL

Sequence of Acetylcholinesterase (P22303 whole entry): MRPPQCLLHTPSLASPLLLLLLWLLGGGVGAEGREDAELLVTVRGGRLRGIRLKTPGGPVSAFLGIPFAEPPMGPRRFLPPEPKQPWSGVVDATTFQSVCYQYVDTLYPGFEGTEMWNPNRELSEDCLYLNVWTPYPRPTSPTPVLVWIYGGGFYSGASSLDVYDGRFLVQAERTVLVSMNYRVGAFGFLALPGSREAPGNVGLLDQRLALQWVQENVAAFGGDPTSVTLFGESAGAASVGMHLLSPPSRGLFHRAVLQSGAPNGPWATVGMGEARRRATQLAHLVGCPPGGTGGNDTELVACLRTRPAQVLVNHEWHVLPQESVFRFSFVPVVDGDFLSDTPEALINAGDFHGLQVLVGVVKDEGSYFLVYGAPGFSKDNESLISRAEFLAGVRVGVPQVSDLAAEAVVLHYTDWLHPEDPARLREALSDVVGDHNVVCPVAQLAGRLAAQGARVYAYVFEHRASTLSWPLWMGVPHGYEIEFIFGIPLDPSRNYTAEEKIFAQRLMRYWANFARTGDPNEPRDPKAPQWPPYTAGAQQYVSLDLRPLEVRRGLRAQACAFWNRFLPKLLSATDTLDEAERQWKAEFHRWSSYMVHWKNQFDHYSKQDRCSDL

Question: For COc1cc2cc(-c3ccc(CN(C)Cc4ccccc4)cc3)c(=O)oc2cc1OC, which IC50 [1] is on record?
Answer: 44.5 nM

Question: And the Ki [1]?
Answer: 21.7 nM

Question: And the IC50 [2]?
Answer: 48900 nM
